From patent US8912216B2, “Hetaryl-[1,8]naphthyridine derivatives” (Merck Patent GmbH, priority 2010, dated 2014)
Structures can show the parent of a compound that is named as a salt. Where two headings read alike, the source gives them in different places.

How the values were obtained:
[1] = molecular target: T1, GST-ALK5 (Homo sapiens, UniProt P36897); assay: In-vitro (enzyme) kinase assay, 384-well flashplate (Example 36); assay type: biochemical; settings: GST-ALK5, GST-SMAD2 substrate, 3 mM ATP, 30° C., 45 min; read-out: TβR activity (Example 36)
T1 sequence (P36897 34-503): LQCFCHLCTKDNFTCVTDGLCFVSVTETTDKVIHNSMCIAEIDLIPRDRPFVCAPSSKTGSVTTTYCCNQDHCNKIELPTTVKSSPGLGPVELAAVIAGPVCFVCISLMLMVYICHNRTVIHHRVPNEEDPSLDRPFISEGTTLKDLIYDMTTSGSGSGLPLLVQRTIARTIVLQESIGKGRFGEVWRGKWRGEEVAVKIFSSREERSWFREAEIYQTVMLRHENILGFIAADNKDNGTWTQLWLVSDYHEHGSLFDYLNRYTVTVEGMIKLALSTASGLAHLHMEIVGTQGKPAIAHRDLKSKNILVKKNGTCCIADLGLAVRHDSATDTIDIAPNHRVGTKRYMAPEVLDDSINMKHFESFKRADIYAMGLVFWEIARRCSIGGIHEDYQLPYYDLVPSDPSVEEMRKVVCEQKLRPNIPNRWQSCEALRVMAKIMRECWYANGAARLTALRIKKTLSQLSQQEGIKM
Method: In-vitro (Enzyme) Assay for Determination of the Efficacy of Inhibitors of the Inhibition of TGF-beta-Mediated Effects
The kinase assay was carried out as 384-well flashplate assay. 31.2 nM of GST-ALK5, 439 nM of GST-SMAD2 and 3 mM of ATP (with 0.3 μCi of ^33P-ATP/well) were incubated in a total volume of 35 μl (20 mM of HEPES, 10 mM of MgCl2, 5 mM of MnCl2, 1 mM of DTT, 0.1 of BSA, pH 7.4) without or with test substance (5-10 concentrations) at 30° C. for 45 min. The reaction was stopped using 25 μl of 200 mM EDTA solution, filtered with suction at room temperature after 30 min, and the wells were washed with 3 times 100 μl of 0.9% NaCl solution. Radioactivity was measured in the TopCount. The IC50 values were calculated using RS1.

[2] = system: TGF-beta-induced phosphorylation of Smad2 and Smad3 in Mv1-Lu cells; assay: Inhibition of Smad2/3 phosphorylation in Mv1Lu cells (Example 35A); assay type: cell-based, mink Mustela vison; settings: Neogale vison, read-out: TβR activity (Example 35A)
Method: Inhibition of Smad2/3 Phosphorylation in Mv1Lu Cells by TGF-bta Receptor I Kinase Inhibitors
This assay was used to determine the inhibitory potency of compounds on TGF-beta-induced phosphorylation of Smad2 (Ser465/467) and Smad3 (Ser423/425). Mv1-Lu cells (lung epithelial cell line from mink Mustela vison; ATCC number: CCL-64) were seeded in DMEM (Invitrogen) supplemented with 10% fetal bovine serum (Pan Biotech) at a defined cell density in 24-well or 96-well plates (24-well plate: 1.5×10^5 cells per well; 96-well plate: 4×10^4 cells per well). Cell cultures were incubated in DMEM at 37° C. and 10% CO2. On the next day, the medium was replaced and cells were serum-starved for 16-20 hours. The following day, serial dilutions of compounds were added to the wells, pre-incubated for 1.5 hrs before recombinant TGF-beta 1 ligand (final concentration 5 ng/ml; R&D systems) was added. After one hour of ligand stimulation, lysates were prepared and analyzed using an enzyme-linked immunosorbent assay kit (PathScan Phospho-Smad2 Kit, Cell Signaling Technologies). The ELISA detects phosphorylated Smad2 as well as phosphorylated Smad3 with the phospho-specific antibody. TGF-beta stimulated cells and unstimulated cells served as positive and negative controls (100% and background control). The concentration of the vehicle DMSO was kept constant at 0.2% (v/v) in all wells. Dose-response relationships were fitted using curve fitting algorithms of the RS1 statistics software package (Brooks Automation Inc. RS/1—Statistical Tools Handbook. Release 6.2) to determine the concentration at which half-maximal inhibition (IC50) of Smad2/3 phosphorylation was achieved.

[3] = Mv1-Lu cells, TGF-beta 1 5 ng/ml, phospho-Smad2/3 ELISA

IC50 [1] [nM] | IC50 [2, 3] [nM] | SMILES | IC50 [2] [nM]
< 100 | < 100 | Fc1ccc(Cl)cc1-c1cc(-c2cncc(-c3cnn(CCN4CCCC4)c3)c2)c2cccnc2n1 [compound 21, 2-(5-Chloro-2-fluoro-phenyl)-4-{5-[1-(2-pyrrolidin-1-yl-ethyl)-1H-pyrazol-4-yl]-pyridin-3-yl}-[1,8]naphthyridine] | 
1000 to 10000 | 1000 to 10000 | Cn1cc(-c2cc(-c3cc(-c4cc(Cl)ccc4F)nc4ncccc34)c[n+]([O-])c2)cn1 [compound 22, 2-(5-chloro-2-fluoro-phenyl)-4-[5-(1-methyl-1H-pyrazol-4-yl)-1-oxy-pyridin-3-yl]-[1,8]naphthyridine] | 
< 100 | < 100 | Fc1ccccc1-c1cc(-c2cncc(-c3cnn(CCN4CCCC4)c3)c2)c2cccnc2n1 [compound 24, 2-(2-Fluoro-phenyl)-4-{5-[1-(2-pyrrolidin-1-yl-ethyl)-1H-pyrazol-4-yl]-pyridin-3-yl}-[1,8]naphthyridine] | 
< 100 | < 100 | Fc1ccc(F)c(-c2cc(-c3cncc(-c4cnn(CCN5CCCC5)c4)c3)c3cccnc3n2)c1 [compound 26, 2-(2,5-Difluoro-phenyl)-4-{5-[1-(2-pyrrolidin-1-yl-ethyl)-1H-pyrazol-4-yl]-pyridin-3-yl}-[1,8]naphthyridine] | 
< 100 | < 100 | CN1CCC(n2cc(-c3cncc(-c4cc(-c5ccccc5F)nc5ncccc45)c3)cn2)CC1 [compound 30, 2-(2-fluoro-phenyl)-4-{5-[1-(1-methyl-piperidin-4-yl)-1H-pyrazol-4-yl]-pyridin-3-yl}-[1,8]naphthyridine] | 
< 100 | 100 to 1000 | OCCn1cc(-c2cncc(-c3cc(-c4cc(C(F)(F)F)ccc4F)nc4ncccc34)c2)cn1 [compound 37, 2-(4-{5-[2-(2-Fluoro-5-trifluoromethyl-phenyl)-[1,8]naphthyridin-4-yl]-pyridin-3-yl}-pyrazol-1-yl)-ethanol] | 
< 100 | < 100 | CCN1CCC(n2cc(-c3cncc(-c4cc(-c5cc(Cl)ccc5F)nc5ncccc45)c3)cn2)CC1 [compound 46, 2-(5-Chloro-2-fluoro-phenyl)-4-{5-[1-(1-ethyl-piperidin-4-yl)-1H-pyrazol-4-yl]-pyridin-3-yl}-[1,8]naphthyridine] | 
< 100 | < 100 | Fc1ccc(F)c(-c2cc(-c3cncc(-c4cnn(C5CCNCC5)c4)c3)c3cccnc3n2)c1 [compound 47, 2-(2,5-Difluoro-phenyl)-4-[5-(1-piperidin-4-yl-1H-pyrazol-4-yl)-pyridin-3-yl]-[1,8]naphthyridine] | 
< 100 | < 100 | COCCN1CCC(n2cc(-c3cncc(-c4cc(-c5cc(F)ccc5F)nc5ncccc45)c3)cn2)CC1 [compound 50, 2-(2,5-Difluoro-phenyl)-4-(5-{1-[1-(2-methoxy-ethyl)-piperidin-4-yl]-1H-pyrazol-4-yl}-pyridin-3-yl)-[1,8]naphthyridine] | 

The remaining lines, values behind:

SMILES | IC50 [1] [nM] | IC50 [2, 3] [nM] | IC50 [2] [nM]
Fc1ccc(C(F)(F)F)cc1-c1cc(-c2cncc(-c3cnn(CCN4CCCC4)c3)c2)c2cccnc2n1 [compound 19, 2-(2-Fluoro-5-trifluoromethyl-phenyl)-4-{5-[1-(2-pyrrolidin-1-yl-ethyl)-1H-pyrazol-4-yl]-pyridin-3-yl}-[1,8]naphthyridine] | < 100 | < 100 | 
Fc1ccc(Cl)cc1-c1cc(-c2ccnc(-c3ccccc3)c2)c2cccnc2n1 [compound 20, 2-(5-Chloro-2-fluoro-phenyl)-4-(2-phenyl-pyridin-4-yl)-[1,8]naphthyridine] | > 10000 | > 10000 | 
CN1CCC(n2cc(-c3cncc(-c4cc(-c5cc(C(F)(F)F)ccc5F)nc5ncccc45)c3)cn2)CC1 [compound 23, 2-(2-fluoro-5-trifluoromethyl-phenyl)-4-{5-[1-(1-methyl-piperidin-4-yl)-1H-pyrazol-4-yl]-pyridin-3-yl}-[1,8]naphthyridine] | < 100 | < 100 | 
CN1CCC(n2cc(-c3cncc(-c4cc(-c5cc(Cl)ccc5F)nc5ncccc45)c3)cn2)CC1 [compound 25, 2-(5-chloro-2-fluoro-phenyl)-4-{5-[1-(1-methyl-piperidin-4-yl)-1H-pyrazol-4-yl]-pyridin-3-yl}-[1,8]naphthyridine] | < 100 |  | < 100
Fc1ccccc1-c1cc(-c2cncc(-c3cnn(C4CCNCC4)c3)c2)c2cccnc2n1 [compound 29, 2-(2-Fluoro-phenyl)-4-[5-(1-piperidin-4-yl-1H-pyrazol-4-yl)-pyridin-3-yl]-[1,8]naphthyridine dihydrochloride] | < 100 |  | < 100
Cn1cc(-c2cc(-c3cc(-c4cc(Cl)ccc4F)nc4ncccc34)cnc2N)cn1 [compound 31, 5-[2-(5-chloro-2-fluoro-phenyl)-[1,8]naphthyridin-4-yl]-3-(1-methyl-1H-pyrazol-4-yl)-pyridin-2-ylamine] | 1000 to 10000 | > 10000 | 
Fc1ccc(C(F)(F)F)cc1-c1cc(-c2cncc(-c3cnn(CCN4CCOCC4)c3)c2)c2cccnc2n1 [compound 34, 2-(2-Fluoro-5-trifluoromethyl-phenyl)-4-{5-[1-(2-morpholin-4-yl-ethyl)-1H-pyrazol-4-yl]-pyridin-3-yl}-[1,8]naphthyridine] | < 100 | 100 to 1000 | 
CN1CCC(n2cc(-c3cncc(-c4cc(-c5cc(F)ccc5F)nc5ncccc45)c3)cn2)CC1 [compound 35, 2-(2,5-Difluoro-phenyl)-4-{5-[1-(1-methyl-piperidin-4-yl)-1H-pyrazol-4-yl]-pyridin-3-yl}-[1,8]naphthyridine] | < 100 | < 100 | 
COCCN1CCC(n2cc(-c3cncc(-c4cc(-c5cc(Cl)ccc5F)nc5ncccc45)c3)cn2)CC1 [compound 44, 2-(5-chloro-2-fluoro-phenyl)-4-(5-{1-[1-(2-methoxy-ethyl)-piperidin-4-yl]-1H-pyrazol-4-yl}-pyridin-3-yl)-[1,8]naphthyridine] | < 100 | < 100 | 
OCCN1CCC(n2cc(-c3cncc(-c4cc(-c5cc(Cl)ccc5F)nc5ncccc45)c3)cn2)CC1 [compound 45, 2-[4-(4-{5-[2-(5-Chloro-2-fluoro-phenyl)-[1,8]naphthyridin-4-yl]-pyridin-3-yl}-pyrazol-1-yl)-piperidin-1-yl]-ethanol] | < 100 | < 100 | 
Fc1ccc(F)c(-c2cc(-c3cncc(-c4cnn(CCCN5CCOCC5)c4)c3)c3cccnc3n2)c1 [compound 48, 2-(2,5-Difluoro-phenyl)-4-{5-[1-(3-morpholin-4-yl-propyl)-1H-pyrazol-4-yl]-pyridin-3-yl}-[1,8]naphthyridine] | < 100 | 100 to 1000 | 
Cc1cccc(-c2cc(-c3cncc(-c4cnn(C5CCN(C)CC5)c4)c3)c3cccnc3n2)n1 [compound 49, 4-{5-[1-(1-Methyl-piperidin-4-yl)-1H-pyrazol-4-yl]-pyridin-3-yl}-2-(6-methyl-pyridin-2-yl)-[1,8]naphthyridine] | < 100 | < 100 | 
CN1CCC(n2cc(-c3cncc(-c4cc(-c5cc(Cl)ccc5F)nc5ncccc45)n3)cn2)CC1 [compound 51, 2-(5-Chloro-2-fluoro-phenyl)-4-{6-[1-(1-methyl-piperidin-4-yl)-1H-pyrazol-4-yl]-pyrazin-2-yl}-[1,8]naphthyridine] | < 100 | < 100 | 
